We go through seven molecules from patent US20100316991A1, “HUMAN PARAINFLUENZA VIRUS TYPE 3 EXPRESSING THE ENHANCED GREEN FLUORESCENT PROTEIN FOR USE IN HIGH-THROUGHPUT ANTIVIRAL ASSAYS” (priority 2009, published 2010).

Converted amounts (≈) assume the structure as drawn. Some results are limits rather than exact numbers.

Assay [1] deals with rHPIV3-EGFP. The assay can be described thus: 7-Day colorimetric neutral red uptake antiviral assay. The assay is classed as cell-based, human parainfluenza type 3 virus. The conditions noted are these: for SI: 7-Day colorimetric neutral red uptake assay, SI = Mean IC50/Mean EC50; for EC50: Homo sapiens, MA104, 168 h. The procedure: (§1) Ninety-six-well plates were seeded with MA-104 cells and infected with 3.9×10^3 PFU of either the HPIV-3 WT or rHPIV3-EGFP virus in duplicate at an MOI=0.1 in quadruplicate wells. The plates were incubated at 37° C. and on each day, including the day of infection, the cells were stained with 0.034% neutral red for 2 hours at 37° C., washed once with PBS, and the NR extracted with ethanol:Sörenson's citrate buffer for 30 min while rocking at room temperature. Absorbance, at 540 and 405 nm wavelengths, was read with an Opsys MR™ spectrophotometer and Revelation Quicklink software, version 4.24 (both from Dynex Technologies, Chantilly, Va.). The two curves was compared and statistically analyzed by ANOVA.
(§2) Six 96-well plates were seeded with MA-104 cells to evaluate the NR and EGFP assays in parallel. A format was used allowing seven compounds to be tested per plate. Each compound was plated using four 10-fold dilutions in triplicate and starting the concentration at 1000 μg/mL for ribavirin (positive control), and ribamidine; 100 μg/mL for 2-thio-6-azauridine, 3-deazaguanosine, 1-(4-methoxybenzyloxy) adenosine, selenazofurin, and EICAR; 100 μM for CS-978, CS-1164, CS-1196, CS-1227, PSI-0194, PSI-5067, PSI-5095, PSI-5098, PSI-5452, PSI-5449, PSI-5741, PSI-5746, PSI-5747, PSI-5852, and PSI-5990; and 1 μg/mL for DAS181. Compounds that were reconstituted in DMSO were diluted down to working concentrations of 0.5% DMSO and less to eliminate cell toxicity due to the DMSO. Two of the replicates were infected with 3.9×10^3 PFU of rHPIV3-EGFP, at an MOI=0.1, while the remaining replicate served as a toxicity control with no virus added. Three of the plates were incubated at 37° C. for 3 days, after which, the toxicity and cell control cells were stained with NR following the same procedure described earlier. NR fluorescence was measured with the FMax® fluorometer, using the 544 nm excitation and 612 nm emission filters. The untreated virus control and treated, infected cells were washed with PBS, fresh PBS was added, and the fluorescence was measured with the FMax® fluorometer, using the 485 nm excitation and 538 nm emission filters. The other three plates were assayed using the traditional colorimetric NR assay. After incubation for 7 days at 37° C., the cells were stained with NR following the same procedure described earlier. For the NR assay, EC50 and 50% cell inhibitory concentrations (IC50) were calculated by linear regression from percents of untreated, uninfected cell and untreated, infected virus controls. For the EGFP assay, EC50 values were calculated by linear regression using percents of untreated, infected virus controls and IC50 values were also calculated by linear regression using percents of untreated, uninfected cell control. The EC50 and IC50 values for each compound for both assays were compared and statistically analyzed by unpaired, two-tailed Student's t-test. A selectivity index (SI) was calculated for each compound for each assay using the formula: SI=Mean IC50/Mean EC50. Compounds were sorted into positive, SI≧10, and negative, SI<10, categories for the combination of NR and EGFP assays. Using the NR assay as the gold standard, sensitivity, true positives/(true positives+false negatives), and specificity, true negatives/(true negatives+false positives), were calculated.

In assay [2] the test system is MA-104 cells. Description: 7-Day colorimetric neutral red uptake assay, toxicity control (no virus). The assay is classed as cell-based, African green monkey. The conditions noted are these: Chlorocebus sabaeus, MA104, 168 h, uninfected MA-104 cells, mean of three assays ± SD, read-out: IC50 (50% cell inhibitory concentration). As to the method:
as §1, §2

In assay [3] the test system is rHPIV3-EGFP. The assay can be described thus: 3-Day EGFP fluorescent antiviral assay. The class given is cell-based, human parainfluenza type 3 virus. Particulars: for EC50: MA104, 72 h. As to the method:
as §2

Assay [4] concerns MA-104 cells. Description: 3-Day EGFP assay, toxicity control (no virus, NR fluorescence). Particulars: Chlorocebus sabaeus, MA104, 72 h, 3-Day EGFP fluorescent assay, uninfected MA-104 cells, read-out: IC50 (50% cell inhibitory concentration). The assay is classed as cell-based, African green monkey. As to the method: as §2
In the next assay the test system is HPIV-3 WT. Description: Antiviral sensitivity CPE assay (neutral red), HPIV-3 WT. The assay is classed as cell-based, human parainfluenza type 3 virus. Particulars: Human respirovirus 3, MA104, 168 h, MA-104 cells, MOI=0.1, 7 days, NR, mean ± SD of three replicates. The procedure:
as §1
(§3) An antiviral CPE assay was used to evaluate the antiviral sensitivity profiles of the HPIV-3 WT and rHPIV3-EGFP viruses. Briefly, three compounds: ribavirin (positive control), 2-thio-6-azauridine, and DAS181, were plated in four 10-fold dilutions in five replicates on 96-well plates seeded with MA-104 cells using starting concentrations of 1000, 100, and 1 μg/mL, respectively. […] Fifty percent effective concentrations (EC50) were calculated by linear regression using percents of untreated, uninfected cell and untreated, infected virus controls. EC50 values were compared and statistically analyzed by the unpaired, two-tailed Student's t-test.

Assay [5] relates to rHPIV3-EGFP. Description: Antiviral sensitivity CPE assay (neutral red), rHPIV3-EGFP. The assay is classed as cell-based, human parainfluenza type 3 virus. Particulars: MA104, 168 h. As to the method: as §1, §3

As for `COc1ccc(COn2cnc3c(ncn3[C@@H]3O[C@H](CO)[C@@H](O)[C@H]3O)c2=N)cc1` [1-(4-methoxybenzyloxy) adenosine], the SI with rHPIV3-EGFP [1] and with rHPIV3-EGFP [3] was 0 in each case. Besides, the EC50 was greater than 31 µg/mL in the assay with rHPIV3-EGFP [1] and greater than 41 µg/mL with rHPIV3-EGFP [3]. Also, the IC50 amounted to 31 ± 1.2 µg/mL with MA-104 cells [2] and 41 ± 2.5 µg/mL in the assay on MA-104 cells [4].

Turning to `O=c1cnn([C@@H]2O[C@H](CO)[C@@H](O)[C@H]2O)c(=S)[nH]1` [2-Thio-6-azauridine, 2-[(2R,3R,4S,5R)-3,4-Dihydroxy-5-(hydroxymethyl)oxolan-2-yl]-3-sulfanylidene-1,2,4-triazin-5-one], the EC50 was 1.1 ± 0.058 µg/mL (≈ 4.21 µM) in the assay on HPIV-3 WT, 0.63 ± 0.075 µg/mL (≈ 2.41 µM) in the assay on rHPIV3-EGFP [5], 0.6 ± 0.095 µg/mL with rHPIV3-EGFP [1] and 0.89 ± 0.13 µg/mL in the assay on rHPIV3-EGFP [3]. In addition, the SI in the assay with rHPIV3-EGFP [1] is 28; in the assay on rHPIV3-EGFP [3], greater than 110. The IC50 was 17 ± 3.5 µg/mL in the assay on MA-104 cells [2] and greater than 100 µg/mL in the assay with MA-104 cells [4].

`Nc1cc2c(ncn2[C@@H]2O[C@H](CO)[C@@H](O)[C@H]2O)c(=O)[nH]1` [3-Deazaguanosine, 6-amino-1-[(2R,3R,4S,5R)-3,4-dihydroxy-5-(hydroxymethyl)oxolan-2-yl]-5H-imidazo[4,5-c]pyridin-4-one]: the SI in the assay with rHPIV3-EGFP [1] is recorded as less than 1; in the assay with rHPIV3-EGFP [3], greater than 5. For the same molecule, the EC50 was greater than 31 µg/mL with rHPIV3-EGFP [1] and 21 µg/mL with rHPIV3-EGFP [3]. Further, the IC50 was 34 ± 3.5 µg/mL in the assay on MA-104 cells [2] and greater than 100 µg/mL in the assay with MA-104 cells [4].

Turning to `C#Cc1c(C(N)=O)ncn1[C@@H]1O[C@H](CO)[C@@H](O)[C@H]1O` [EICAR, 1-[(2R,3R,4S,5R)-3,4-dihydroxy-5-(hydroxymethyl)oxolan-2-yl]-5-ethynylimidazole-4-carboxamide], the SI is reported as greater than 120 in the assay on rHPIV3-EGFP [1] and greater than 280 in the assay on rHPIV3-EGFP [3]. Further, the EC50 with rHPIV3-EGFP [1] came to 0.81 ± 0.061 µg/mL; in the assay on rHPIV3-EGFP [3], 0.35 µg/mL. Further, the IC50 in the assay on MA-104 cells [2] and with MA-104 cells [4] was greater than 100 µg/mL throughout.

As for `N=C(N)c1ncn([C@@H]2O[C@H](CO)[C@@H](O)[C@H]2O)n1` [Ribamidine, 1-[(2R,3R,4S,5R)-3,4-dihydroxy-5-(hydroxymethyl)oxolan-2-yl]-1,2,4-triazole-3-carboximidamide], the SI was 7 with rHPIV3-EGFP [1] and greater than 15 with rHPIV3-EGFP [3]. Moreover, the EC50 with rHPIV3-EGFP [1] amounted to 57 ± 15 µg/mL; with rHPIV3-EGFP [3], 68 ± 2.6 µg/mL. Moreover, the IC50 in the assay with MA-104 cells [2] was 390 ± 20 µg/mL; in the assay on MA-104 cells [4] it was greater than 1000 µg/mL. The “activity category by SI in the EGFP assay” value in the assay on rHPIV3-EGFP [3] is “moderately active (between 10 and 49 moderately active)”.

Turning to `NC(=O)c1ncn([C@@H]2O[C@H](CO)[C@@H](O)[C@H]2O)n1` [Ribavirin, 1-[(2R,3R,4S,5R)-3,4-dihydroxy-5-(hydroxymethyl)oxolan-2-yl]-1,2,4-triazole-3-carboxamide], the EC50 in the assay with HPIV-3 WT was 35 ± 2.5 µg/mL (≈ 143 µM); in the assay with rHPIV3-EGFP [5], 19 ± 4.9 µg/mL (≈ 77.8 µM); with rHPIV3-EGFP [1], 20 ± 3.6 µg/mL; in the assay with rHPIV3-EGFP [3] it was 31 µg/mL. Moreover, the SI with rHPIV3-EGFP [1] is recorded as 12; in the assay on rHPIV3-EGFP [3], greater than 32. Further, the IC50 is 230 ± 92 µg/mL with MA-104 cells [2] and greater than 1000 µg/mL in the assay on MA-104 cells [4].

In the case of `NC(=O)c1c[se]c([C@@H]2O[C@H](CO)[C@@H](O)[C@H]2O)n1` [Selenazofurin, 2-[(2R,3R,4S,5R)-3,4-dihydroxy-5-(hydroxymethyl)oxolan-2-yl]-1,3-selenazole-4-carboxamide], in the assay with rHPIV3-EGFP [1], the SI was found to be 7 and the EC50 stood at 4.9 ± 1.4 µg/mL. In addition, in the assay with MA-104 cells [2], the IC50 worked out at 34 ± 7.2 µg/mL. Further, in the assay with rHPIV3-EGFP [3], the EC50 came out at 3.5 ± 0.1 µg/mL; the SI was greater than 29; the “activity category by SI in the EGFP assay” value was “moderately active (between 10 and 49 moderately active)”. Moreover, the IC50 in the assay with MA-104 cells [4] was greater than 100 µg/mL.

Broadly, the EC50 is the concentration giving half of the maximal effect.
